{
  "source": "patent US10464941B2",
  "about": "“Therapeutic compounds” (REGENTS OF THE UNIVERSITY OF MINNESOTA, priority 2015, dated 2019)",
  "key": {"IL-6": {"tested_on": "IL-6", "assay": "Proinflammatory cytokine IL-6 ELISA in LPS-stimulated microglia (BV2)", "assay_type": "cell-based, murine", "procedure": "Murine primary microglia cell line (BV2) were cultured in DMEM with 10% heat-inactivated fetal bovine serum (FBS), 100 U/ml penicillin, 100 μg/ml streptomycin, 10 μg/ml gentamycin (all from Invitrogen, CA, USA). Cells were harvested on reaching 80% to 90% confluence by treating with 0.25% trypsin containing 1 mM EDTA for 5 minutes at 37° C. Cells (20,000/200 μl) were seeded on flat bottom 96 well plates and treated for 3 hrs with equimolar concentration (200 nM) of MCC22/Minocycline for 3 hrs followed by overnight treatment with LPS (1 μg/ml). At the end of the experiment, IL-6 was estimated by Sandwich ELISA using mouse IL-6 DuoSet kit (R&D Systems, Minneapolis, Minn.) in the culture supernatant."}, "LPS-pretreated mice [1]": {"tested_on": "LPS-pretreated mice", "assay": "Effect of minocycline on MCC22 antinociception in LPS-pretreated mice (tail flick)", "assay_type": "in vivo", "conditions": "for MPE after minocycline: MCC22 1 pmol/mouse i.t.", "procedure": "Effect of Minocycline in Mice Pretreated by LPS and Blockage of Antinociception of MCC22.\nThree separate groups of mice (n=8) were pretreated with 1 mg/kg of LPS (i.p.). At 24 hours the baseline antinociception was measured using the tail flick assay to calculate % MPE. […] […] The dose used for MCC22 is a hundred times the ED50 dose of LPS pretreated mice with MCC22."}, "[2]": {"tested_on": "mice with cisplatin-induced hyperalgesia", "assay": "Cisplatin-induced peripheral neuropathy, mechanical hyperalgesia (von Frey)", "assay_type": "in vivo, C3H/HeJ mice", "conditions": "cisplatin model", "procedure": "Adult male C3H/HeJ mice were tested for mechanical paw withdrawal responses on 2 consecutive days prior to treatment by determining the frequency of hind paw withdrawal evoked by a standard von Frey monofilament with a bending force of 3.9 mN applied to the plantar surface of the hind paws. Mice were then given 1 mg/kg of cisplatin intraperitoneal (i.p.) daily for 7 consecutive days and on day 14 post-injection, mechanical hyperalgesia was assessed. Compounds were administered intrathecally (i.t.) and i.p. weekly to determine peak time effects and ED50/80."}, "control mice": {"tested_on": "control mice", "assay": "Radiant heat tail-flick antinociception, control (LPS-untreated) mice", "assay_type": "in vivo", "excerpt": "Pain is a hallmark of many inflammatory conditions."}, "HbSS and HbAS mice": {"tested_on": "HbSS and HbAS mice", "assay": "Sickle cell disease mice, paw withdrawal frequency", "assay_type": "in vivo, Townes transgenic humanized mice", "conditions": "8.0 μmol/kg i.p.", "procedure": "Townes transgenic humanized mice expressing sickle hemoglobin (HbSS/HbAS) and normal human hemoglobin (HbAA) controls (4-12 weeks of age, 20-25 g) were used in this study. Mice were characterized for hyperalgesia by quantifying cutaneous mechanical sensitivity of the hind paw and forelimb grip force. Mechanical sensitivity of the hind paw was evaluated by determining the frequency of withdrawal responses and paw withdrawal threshold. The frequency of paw withdrawal evoked by a standard von Frey monofilament with a bending force of 9.3 mN applied to the plantar surface of the hind paws was determined from 10 trials on each paw. Withdrawal threshold was determined using an electronic von Frey anesthesiometer pressed against the plantar surface with increasing force until withdrawal occurred. To assess deep tissue hyperalgesia, the tensile force of peak forelimb exertion was measured using a computerized grip force meter. To evaluate the analgesic effects of MCC22, paw withdrawal frequency was determined before and at various times after administration of […] i.p."}, "LPS-pretreated mice [3]": {"tested_on": "LPS-pretreated mice", "assay": "animal or person", "conditions": "for LPS pretreated i.c.v./i.t. ratio / LPS pretreated ED50 (CI) i.t.: LPS 1 mg/kg 24 hours i.p.; for LPS pretreated ED50 (CI) i.t.: tail flick", "procedure": "Male ICR-CD1 mice (17-25 g; Harlan, Madison, Wis.), C3H mice (15-20 g, National Cancer Institute, Bethesda, Md.) or TLR4 knock-out mice (gift from Dr. Sabita Roy) were housed, 4 to a small box in a temperature- and humidity-controlled environment with unlimited access to food and water. They were maintained on a 12 h light/dark cycle. All experiments were approved by the Institutional Animal Care and Use Committee of the University of Minnesota (Minneapolis, Minn.).\nThe tail flick assay is used to test for antinociception described by D'Amour and Smith^64 and modified by Dewey et. al.^65 Mice are held gently in one hand with the tail positioned in the apparatus (Tail Flick Analgesia Meter, Columbus Instruments, Columbus, Ohio) for radiant heat stimulus. The tail-flick response is elicited by applying radiant heat to the dorsal side of the tail. The test latency is measured before drug treatment (control) and again after the drug treatment (test) at the peak time of the compound, a 10 s maximum cut-off time is used to prevent damage to the tail. Antinociception is quantified according to the method of Harris and Pierson^66 as the percent maximal possible effect (% MPE) which is calculated as: % MPE=(Test−Control/10−Control)×100\nA minimum of three groups of eight to ten mice are used for each dose response curve, and each mouse is used only once.\nThe compounds were tested for acute tolerance by comparing the ED80-90 dose measured on day 1 to the same dose administered and retested 24 hours later on the same mouse.\nCompounds were dissolved in 5% DMSO and diluted to less than 1% DMSO for injection. These compounds were administered in a volume of 5-μl either i.c.v (Haley and McCormick) or intrathecal (i.t.) as described for mice by Hylden and Wilcox^67 in conscious mice. […] Time course studies, including the times 5, 10, 20, 30 and 60 minutes were used to determine the peak antinociception.\nPain is a hallmark of many inflammatory conditions. […] Antinociception was evaluated using the radiant heat-induced tailflick assay. Morphine was employed as a standard opioid agonist under these conditions."}},
  "note": "Where “and” joins values, the source holds several entries; their conditions need not be identical. Identical values can stand only once. Marks after values point to notes of the source that are not given here.",
  "data": [
    {"smiles": "Cc1ccc(N(CCCN2CCC(Cc3ccc(C(N)=O)cc3)CC2)C(=O)C2CCN(C(=O)COCC(=O)NCCCCCCCCCCNC(=O)COCC(=O)N[C@H]3CC[C@@]4(O)C5Cc6ccc(O)c7c6[C@@]4(CCN5C)[C@H]3O7)CC2)cc1Cl", "note": "[Compound 3e, N-(3-(4-(4-carbamoylbenzyl)piperidin-1-yl)propyl)-N-(3-chloro-4-methylphenyl)-1-(22-(((4aS,7S,7aR,12bS)-4a,9-dihydroxy-3-methyl-2,3,4,4a,5,6,7,7a-octahydro-1H-4,12-methanobenzofuro[3,2-e]isoquinolin-7-yl)amino)-5,18,22-trioxo-3,20-dioxa-6,17-diazadocosan-1-oyl)piperidine-4-carboxamide]", "values": [
      {"measurement": "attenuation of IL-6 secretion", "setting": "IL-6; 200 nM, 3 hrs pretreatment, LPS 1 μg/ml overnight, microglial supernatant", "value": "~30", "unit": "%"},
      {"measurement": "IL-6 secretion when combined with minocycline", "setting": "IL-6; MCC22 combined with minocycline, LPS", "value": "further attenuated"},
      {"measurement": "MPE after minocycline", "setting": "LPS-pretreated mice [1]; 60 min after minocycline 45 mg/kg i.p., LPS pretreated", "value": 100, "unit": "%"},
      {"measurement": "MPE after minocycline", "setting": "LPS-pretreated mice [1]; 120 min after minocycline 45 mg/kg i.p., LPS pretreated", "value": "52.04%±17.04"},
      {"measurement": "MPE after minocycline", "setting": "LPS-pretreated mice [1]; 240 min after minocycline 45 mg/kg i.p., LPS pretreated", "value": "10.7%±5.17"},
      {"measurement": "% MPE", "setting": "LPS-pretreated mice [1]; LPS 24 hours, minocycline 4 hours, 1000 pmol/mouse MCC22", "value": "49.35±14.38", "unit": "% MPE"},
      {"measurement": "FIG. 4 LPS/minocycline/MCC22 (value with interval)", "setting": "LPS-pretreated mice [1]; LPS pretreated, minocycline 45 mg/kg i.p. prior to testing", "value": "1016 (54-1558)"},
      {"measurement": "ED50 (95% CI) i.p.", "setting": "[2]; i.p.", "value": 3.07, "unit": "pmol/mouse"},
      {"measurement": "peak time", "setting": "[2]; i.p.", "value": 30, "unit": "min"},
      {"measurement": "tolerance", "setting": "[2]; i.p.", "value": "did not exhibit tolerance"},
      {"measurement": "ED50 (95% CI) i.t.", "setting": "[2]; i.t.", "value": 0.0004, "unit": "pmol/mouse"},
      {"measurement": "change of potency with time", "setting": "[2]; i.t.", "value": "increased in potency over 115 days"},
      {"measurement": "peak time", "setting": "[2]; i.t.", "value": 20, "unit": "min"},
      {"measurement": "tolerance", "setting": "[2]; i.t.", "value": "no tolerance"},
      {"measurement": "CONTROLS i.c.v./i.t. ratio", "setting": "control mice; control mice", "value": "10.93^e"},
      {"measurement": "percent maximal possible effect at highest dose measured", "setting": "control mice; control mice, i.c.v., 500 pmol/mouse", "value": "49.7 ± 14.9", "unit": "%"},
      {"measurement": "acute tolerance (ED80 retested 24 hours later)", "setting": "control mice; control mice, i.t.", "value": "(23.1-90.8)^b"},
      {"measurement": "CONTROLS ED50 (CI) i.t.", "setting": "control mice; control mice, i.t., tail flick", "value": 45.8, "unit": "pmol/mouse"},
      {"measurement": "CONTROLS i.c.v./i.t. ratio", "setting": "control mice; control mice, listed as MCC22", "value": 11},
      {"measurement": "potency increase over 3c", "setting": "control mice; i.t., LPS-untreated control mice", "value": "~4", "unit": "fold"},
      {"measurement": "FIG. 4 naïve/MCC22 (value with interval)", "setting": "control mice; naïve mice", "value": "45.75 (23.05-90.81)"},
      {"measurement": "time to reduced hyperalgesia (decrease in paw withdrawal frequency)", "setting": "HbSS and HbAS mice", "value": "≤ 30", "unit": "min"},
      {"measurement": "LPS pretreated i.c.v./i.t. ratio", "setting": "LPS-pretreated mice [3]", "value": "~34,000^d"},
      {"measurement": "LPS pretreated ED50 (CI) i.t.", "setting": "LPS-pretreated mice [3]; i.t.", "value": 0.0149, "unit": "pmol/mouse"},
      {"measurement": "LPS pretreated ED50 (CI) i.t.", "setting": "LPS-pretreated mice [3]; i.t., listed as MCC22", "value": 0.0146, "unit": "pmol/mouse"},
      {"measurement": "LPS pretreated i.c.v./i.t. ratio", "setting": "LPS-pretreated mice [3]; listed as MCC22", "value": "34,000 and 34,223"},
      {"measurement": "FIG. 4 LPS/MCC22 (value with interval)", "setting": "LPS-pretreated mice [3]; LPS pretreated mice", "value": "0.015 (0.01-0.03)"},
      {"measurement": "percent maximal possible effect at highest dose measured", "setting": "LPS-pretreated mice [3]; LPS pretreated, i.c.v., 500 pmol/mouse", "value": "41.1 ± 12.9", "unit": "%"},
      {"measurement": "potency in TLR4 KO mice", "setting": "LPS-pretreated mice [3]; LPS-pretreated TLR4 KO mice", "value": "not reduced"},
      {"measurement": "effect of MK801 on antinociception", "setting": "LPS-pretreated mice [3]; LPS-pretreated mice treated i.t. with NMDA receptor antagonist MK801, then MCC22", "value": "virtually no effect"},
      {"measurement": "i.t. potency ratio, morphine/MCC22", "setting": "LPS-pretreated mice [3]; LPS-pretreated mice, i.t.", "value": 2400},
      {"measurement": "ED50", "setting": "LPS-pretreated mice [3]; Mus musculus, ip, read-out: ED50 i.p.", "value": 5.6, "unit": "µmol/kg"},
      {"measurement": "ED50 values (95% CI) LPS (thermal)", "setting": "LPS-pretreated mice [3]; i.t., LPS thermal hyperalgesia model", "value": 0.015, "unit": "pmol/mouse"},
      {"measurement": "potency increase over 19-atom spacer homologue 3c", "setting": "LPS-pretreated mice [3]; i.t., LPS-pretreated mice", "value": "> 700", "unit": "fold"},
      {"measurement": "tolerance upon repeated administration", "setting": "LPS-pretreated mice [3]; i.t., LPS-pretreated mice", "value": "without signs of tolerance"},
      {"measurement": "potency increase over 19-atom spacer homologue 3c", "setting": "LPS-pretreated mice [3]; i.t., LPS-pretreated mice, listed as MCC22", "value": "at least 700 fold"},
      {"measurement": "LPS-treated/control potency ratio", "setting": "LPS-pretreated mice [3]; i.t., listed as MCC22", "value": "3070 and 3131"},
      {"measurement": "ED50 potency ratio (β-FNA-treated/control)", "setting": "LPS-pretreated mice [3]; inflamed mice pretreated with β-FNA", "value": 96.6},
      {"measurement": "Relative Potency relative to a mixture of monovalent mu agonist (4) and CCR5 antagonist (2)", "setting": "LPS-pretreated mice [3]; mouse, in vivo", "value": "~3500"},
      {"measurement": "potency relative to morphine or monovalent control ligand 4", "setting": "LPS-pretreated mice [3]; mouse, in vivo", "value": "~1500", "unit": "fold"},
      {"measurement": "Relative Potency relative to a mixture of monovalent mu agonist (4) and CCR5 antagonist (2)", "setting": "LPS-pretreated mice [3]; mouse, in vivo, listed as MCC22", "value": 3500}
    ]}
  ]
}
